# Reference: US4436751A, “Nitrobenzyl monates antibacterial compounds” (Beecham Group Limited, priority 1980, dated 1984)
# Like-named read-outs stand apart in the source and are kept apart here.
# Columns and labels:
# Assay type in all cases: cell-based
# [1] = test system: M. suipneumoniae JF 435; assay: Anti-mycoplasmal MIC in vitro, Friis broth agarose (Table 1); conditions: Mesomycoplasma hyopneumoniae, JF435, 144 h
# [2] = test system: M. suipneumoniae Str. 11; assay: as above; conditions: Mesomycoplasma hyopneumoniae, STR.11, 144 h
# [3] = test system: M. bovigenitalium ATOC 14173; assay: as above; conditions: 144 h
# [4] = test system: M. suipneumoniae TAM 6N; assay: as above; conditions: Mesomycoplasma hyopneumoniae, TAM6N, 144 h
# [5] = test system: M. bovis RCTC 10131; assay: microbe, parasite or virus in culture; conditions: RCTC10131, 144 h
# [6] = test system: M. suipneumoniae OCD 1; assay: Anti-mycoplasmal MIC in vitro, Friis broth agarose (Table 1); conditions: Mesomycoplasma hyopneumoniae, OCD1, 144 h
# [7] = test system: M. suipneumoniae NB12; assay: as above; conditions: Mesomycoplasma hyopneumoniae, NB12, 144 h
# [8] = test system: M. suipneumoniae PW/C/210; assay: as above; conditions: Mesomycoplasma hyopneumoniae, 144 h
# [9] = test system: M. dispar RCTC 10125; assay: as above; conditions: 144 h
# [10] = test system: E. Coli NCTC 10418; assay: Veterinary bacteria MIC, Diagnostic Sensitivity Test Agar (Table 2); conditions: Escherichia coli
# Experimental: (§1) The values were determined using a two fold serial dilutions in Diagnostic Sensitivity Test Agar with an inoculum of 10^4 organisms and incubation for 18 hours at 37° C.
# [11] = test system: Erysipelothrix rhusiopathiae NCTC 8163; assay: as above
# Experimental: as §1
# [12] = test system: Staph. aureus B4; assay: as above; conditions: Staphylococcus aureus
# Experimental: as §1
# [13] = test system: Sarcina lutea 8340; assay: Human bacteria MIC, nutrient agar with chocolated horse blood (Table 3)
# Experimental: (§2) The values were determined by serial dilutions in nutrient agar with 5% chocolated horse blood after incubations for 18 hours at 37° C.
# [14] = test system: Staph. aureus W2827; assay: as above; conditions: Staphylococcus aureus
# Experimental: as §2
# [15] = test system: E. Coli NCTC 10418; assay: as above; conditions: Escherichia coli
# Experimental: as §2
# [16] = test system: Strep. pyogenes R80/421-A; assay: as above; conditions: Streptococcus pyogenes
# Experimental: as §2
# [17] = test system: K. aerogenes A; assay: as above; conditions: Klebsiella aerogenes
# Experimental: as §2
# [18] = test system: Staph. aureus Russell; assay: as above; conditions: Staphylococcus aureus
# Experimental: as §2
# [19] = test system: Bacillus subtilis 6633; assay: as above
# Experimental: as §2
# [20] = test system: Corynebacterium xerosis 9755; assay: as above
# Experimental: as §2
# [21] = test system: Strep. faecalis 1; assay: as above
# Experimental: as §2
# [22] = test system: Ps. aeruginosa NCTC 10662; assay: as above; conditions: Pseudomonas aeruginosa
# Experimental: as §2
# [23] = test system: Pasteurella multocida 1633; assay: as above
# Experimental: as §2
# [24] = test system: P. mirabilis 889; assay: as above
# Experimental: as §2
# [25] = test system: Staph. aureus Oxford; assay: as above; conditions: Staphylococcus aureus
# Experimental: as §2
# [26] = test system: Haemophilus influenzae Q1; assay: as above
# Experimental: as §2
# [27] = test system: M. hyosynoviae ATOC 25591; assay: Anti-mycoplasmal MIC in vitro, Friis broth agarose (Table 1); conditions: 144 h
# [28] = test system: M. suipneumoniae ATCC 25095; assay: as above; conditions: Mesomycoplasma hyopneumoniae, ATCC25095, 144 h
compound,measurement,setting,value
"C/C(=C\C(=O)OC(C)c1ccc([N+](=O)[O-])cc1)CC1OCC(CC2OC2C(C)C(C)O)C(O)C1O (centres unmarked) [Example 4, 1-(p-nitrophenyl)ethyl monate A]",MIC,"[1]; M. suipneumoniae JF 435, in vitro, 6 days 37° C., read-out: MIC",2.5 µg/mL
same,MIC,[2],1 µg/mL
same,MIC,[3],0.05 µg/mL
same,MIC,"[4]; M. suipneumoniae TAM 6N, in vitro, 6 days 37° C., read-out: MIC",2.5 µg/mL
same,MIC,[5],0.025 µg/mL
same,MIC,[6],1 µg/mL
same,MIC,[7],1 µg/mL
same,MIC,[8],1 µg/mL
same,MIC,"[9]; M. dispar RCTC 10125, in vitro, 6 days 37° C., read-out: MIC",0.1 µg/mL
same,MIC,"[10]; NCTC10418, E. Coli NCTC 10418, DST Agar, 10^4 organisms, 18 hours 37° C., read-out: MIC",> 80 µg/mL
same,MIC,"[11]; NCTC8163, Erysipelothrix rhusiopathiae NCTC 8163, DST Agar, 10^4 organisms, 18 hours 37° C., read-out: MIC",40 µg/mL
same,MIC,"[12]; Staph. aureus B4, DST Agar, 10^4 organisms, 18 hours 37° C., read-out: MIC",2.5 µg/mL
same,MIC,"[13]; Micrococcus luteus, Sarcina lutea 8340, nutrient agar 5% chocolated horse blood, 18 hours 37° C., read-out: MIC",> 100 µg/mL
same,MIC,"[14]; Staph. aureus W2827, nutrient agar 5% chocolated horse blood, 18 hours 37° C., read-out: MIC",2.5 µg/mL
same,MIC,"[15]; NCTC10418, E. coli NCTC 10418, nutrient agar 5% chocolated horse blood, 18 hours 37° C., read-out: MIC",> 100 µg/mL
same,MIC,"[16]; Strep. pyogenes R80/421-A, nutrient agar 5% chocolated horse blood, 18 hours 37° C., read-out: MIC",1 µg/mL
same,MIC,"[17]; K. aerogenes A, nutrient agar 5% chocolated horse blood, 18 hours 37° C., read-out: MIC",> 100 µg/mL
same,MIC,"[18]; Staph. aureus Russell, nutrient agar 5% chocolated horse blood, 18 hours 37° C., read-out: MIC",2.5 µg/mL
same,MIC,"[19]; Bacillus subtilis 6633, nutrient agar 5% chocolated horse blood, 18 hours 37° C., read-out: MIC",1 µg/mL
same,MIC,"[20]; Corynebacterium xerosis 9755, nutrient agar 5% chocolated horse blood, 18 hours 37° C., read-out: MIC",> 100 µg/mL
same,MIC,"[21]; Enterococcus faecalis, Strep. faecalis 1, nutrient agar 5% chocolated horse blood, 18 hours 37° C., read-out: MIC",> 100 µg/mL
same,MIC,"[22]; NCTC10662, Ps. aeruginosa NCTC 10662, nutrient agar 5% chocolated horse blood, 18 hours 37° C., read-out: MIC",> 100 µg/mL
same,MIC,"[23]; Pasteurella multocida 1633, nutrient agar 5% chocolated horse blood, 18 hours 37° C., read-out: MIC",10 µg/mL
same,MIC,"[24]; Proteus mirabilis, P. mirabilis 889, nutrient agar 5% chocolated horse blood, 18 hours 37° C., read-out: MIC",> 100 µg/mL
same,MIC,"[25]; Staph. aureus Oxford, nutrient agar 5% chocolated horse blood, 18 hours 37° C., read-out: MIC",2.5 µg/mL
same,MIC,"[26]; Haemophilus influenzae Q1, nutrient agar 5% chocolated horse blood, 18 hours 37° C., read-out: MIC",1 µg/mL
same,MIC,"[27]; M. hyosynoviae ATOC 25591, in vitro, 6 days 37° C., read-out: MIC",0.1 µg/mL
same,MIC,[28],1 µg/mL
"C/C(=C\C(=O)OCc1ccc([N+](=O)[O-])cc1[N+](=O)[O-])CC1OCC(CC2OC2C(C)C(C)O)C(O)C1O (centres unmarked) [Example 10, 2,4-dinitrobenzyl monate A]",MIC,[1],1 µg/mL
same,MIC,[2],0.5 µg/mL
same,MIC,[3],0.025 µg/mL
same,MIC,[4],1 µg/mL
same,MIC,[5],≤ 0.01 µg/mL
same,MIC,[6],1 µg/mL
same,MIC,[7],1 µg/mL
same,MIC,[8],0.5 µg/mL
same,MIC,[9],0.25 µg/mL
same,MIC,"[10]; NCTC10418, 18 h",> 80 µg/mL
same,MIC,"[11]; Erysipelothrix rhusiopathiae, NCTC8163, 18 h",20 µg/mL
same,MIC,"[12]; B4, 18 h",0.625 µg/mL
same,MIC,"[13]; Micrococcus luteus, 8340, 18 h",> 100 µg/mL
same,MIC,"[14]; W2827, 18 h",2.5 µg/mL
same,MIC,"[15]; NCTC10418, 18 h",> 100 µg/mL
same,MIC,"[16]; R80/421A, 18 h",0.25 µg/mL
same,MIC,[17]; 18 h,> 100 µg/mL
same,MIC,[18]; 18 h,2.5 µg/mL
same,MIC,"[19]; Bacillus subtilis, 6633, 18 h",0.25 µg/mL
same,MIC,"[20]; Corynebacterium xerosis, 9755, 18 h",> 100 µg/mL
same,MIC,"[21]; Enterococcus faecalis, 1, 18 h",> 100 µg/mL
same,MIC,"[22]; NCTC10662, 18 h",> 100 µg/mL
same,MIC,"[23]; Pasteurella multocida, 1633, 18 h",2.5 µg/mL
same,MIC,"[24]; Proteus mirabilis, 889, 18 h",> 100 µg/mL
same,MIC,[25]; 18 h,1 µg/mL
same,MIC,"[26]; Haemophilus influenzae, Q1, 18 h",0.5 µg/mL
same,MIC,[27],0.25 µg/mL
same,MIC,[28],0.5 µg/mL
